According to patent US8530490B2, “Uracil compound or salt thereof having human deoxyuridine triphosphatase inhibitory activity” (Taiho Pharmaceutical Co., Ltd., priority 2008, dated 2013):

The molecules below were run against human dUTPase (Homo sapiens (Human), UniProt P33316) (assay: Human dUTPase inhibitory effect: production of [5-3H]dUMP from [5-3H]dUTP, measured by HPLC with flow scintillation). Conditions: [5-3H]dUMP production from [5-3H]dUTP, 37° C., 15 minutes.
Type: biochemical
Summary of the method: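 E. coli-expressed purified human dUTPase reacted with 1 μM dUTP stock containing [5-3H]dUTP in Tris pH 7.4, MgCl2, 2-mercaptoethanol and albumin, 15 min at 37° C; stopped by 1 min at 100° C. [5-3H]dUMP formed was separated by reversed-phase ion-pair HPLC and quantified by flow scintillation versus water control.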

Sequence of human dUTPase (P33316 94-252): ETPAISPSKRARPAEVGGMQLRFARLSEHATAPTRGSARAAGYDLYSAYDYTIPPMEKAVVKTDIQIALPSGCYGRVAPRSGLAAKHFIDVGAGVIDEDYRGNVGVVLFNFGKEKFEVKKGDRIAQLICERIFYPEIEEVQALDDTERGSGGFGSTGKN

Row | SMILES | IC50
1 | C[C@@H](NS(=O)(=O)CCCn1ccc(=O)[nH]c1=O)c1ccc(F)c(OCC2CC2)c1 [Example 98, (R)—N-(1-(3-(cyclopropylmethoxy)-4-fluorophenyl)ethyl)-3-(2,4-dioxo-3,4-dihydropyrimidin-1(2H)-yl)propane-1-sulfonamide] | 0.66 µM
2 | COc1cccc(S(=O)(=O)NC(C)(C)c2ccc(Cn3ccc(=O)[nH]c3=O)cc2)c1 [Example 177, N-(2-(4-((2,4-dioxo-3,4-dihydropyrimidin-1(2H)-yl)methyl)phenyl)propan-2-yl)-3-methoxybenzenesulfonamide] | 2.57 µM
3 | CN(C(CCn1ccc(=O)[nH]c1=O)C(=O)NO)S(=O)(=O)c1ccc(Oc2ccccc2)cc1 (centres unmarked) [Comparative Example 2, 4-(2,4-Dioxo-3,4-dihydropyrimidin-1(2H)-yl)-N-hydroxy-2-(N-methyl-4-phenoxyphenylsulfonamide)butanamide, reference compound] | 97.2 µM
4 | CC(C)(CCCOCn1ccc(=O)[nH]c1=O)NS(=O)(=O)c1ccc(Cl)c(Cl)c1 [Example 137, 3,4-dichloro-N-(5-((2,4-dioxo-3,4-dihydropyrimidin-1(2H)-yl)methoxy)-2-methylpentan-2-yl)benzenesulfonamide] | 2.05 µM
5 | O=c1ccn(COCCCS(=O)(=O)NCc2cccc(OCC3CC3)c2)c(=O)[nH]1 [Example 1, N-(3-(cyclopropylmethoxy)benzyl)-3-((2,4-dioxo-3,4-dihydropyrimidin-1(2H)-yl)methoxy)propane-1-sulfonamide] | 0.33 µM
6 | CC(C)[C@H](NS(=O)(=O)CCCOCn1ccc(=O)[nH]c1=O)c1ccc(F)c(OCC2CC2)c1 [Example 35, (S)—N-(1-(3-(cyclopropylmethoxy)-4-fluorophenyl)-2-methylpropyl)-3-((2,4-dioxo-3,4-dihydropyrimidin-1(2H)-yl)methoxy)propane-1-sulfonamide] | 1.55 µM
7 | O=c1ccn(COCCCS(=O)(=O)NC(c2ccc(F)cc2)c2ccc(F)cc2)c(=O)[nH]1 [Example 78, N-(bis(4-fluorophenyl)methyl)-3-((2,4-dioxo-3,4-dihydropyrimidin-1(2H)-yl)methoxy)propane-1-sulfonamide] | 2.58 µM
8 | CC(C)(CCCOCn1ccc(=O)[nH]c1=O)NS(=O)(=O)c1cc(Cl)cc(Cl)c1 [Example 139, 3,5-dichloro-N-(5-((2,4-dioxo-3,4-dihydropyrimidin-1(2H)-yl)methoxy)-2-methylpentan-2-yl)benzenesulfonamide] | 4.99 µM
9 | CC[C@@H](C)Oc1cccc([C@@H](C)NS(=O)(=O)CCCOCn2ccc(=O)[nH]c2=O)c1 [Example 66, N—((R)-1-(3-((R)-1-methylpropoxy)phenyl)ethyl)-3-((2,4-dioxo-3,4-dihydropyrimidin-1(2H)-yl)methoxy)propane-1-sulfonamide] | 0.46 µM
10 | CC(C)C(NS(=O)(=O)CCCOCn1ccc(=O)[nH]c1=O)c1cccc(OCC2CC2)c1 (centres unmarked) [Example 31, N-(1-(3-(cyclopropylmethoxy)phenyl)-2-methylpropyl)-3-((2,4-dioxo-3,4-dihydropyrimidin-1(2H)-yl)methoxy)propane-1-sulfonamide] | 0.33 µM
11 | CC(C)(CCCOCn1ccc(=O)[nH]c1=O)NS(=O)(=O)c1cccc(OC2CCCC2)c1 [Example 161, 3-(cyclopentyloxy)-N-(5-((2,4-dioxo-3,4-dihydropyrimidin-1(2H)-yl)methoxy)-2-methylpentan-2-yl)benzenesulfonamide] | 0.24 µM
12 | O=c1ccn(COCCCC2(NS(=O)(=O)c3ccccc3)CC2)c(=O)[nH]1 [Example 164, N-(1-(3-((2,4-dioxo-3,4-dihydropyrimidin-1(2H)-yl)methoxy)propyl)cyclopropyl)benzenesulfonamide] | 6.02 µM
13 | CC[C@H](C)Oc1cccc([C@@H](C)NS(=O)(=O)CCCOCn2ccc(=O)[nH]c2=O)c1 [Example 67, N—((R)-1-(3-((s)-1-methylpropoxy)phenyl)ethyl)-3-((2,4-dioxo-3,4-dihydropyrimidin-1(2H)-yl)methoxy)propane-1-sulfonamide] | 0.43 µM
14 | C[C@@H](NS(=O)(=O)CCCOCn1ccc(=O)[nH]c1=O)c1cccc(OCC(F)(F)F)c1 [Example 53, (R)-3-((2,4-dioxo-3,4-dihydropyrimidin-1(2H)-yl)methoxy)-N-(1-(3-(2,2,2-trifluoroethoxy)phenyl)ethyl)propane-1-sulfonamide] | 0.23 µM
15 | O=c1ccn(CCCS(=O)(=O)N[C@H](c2ccc(F)cc2)c2cccc(OCC3CC3)c2)c(=O)[nH]1 [Example 114, (R)—N-((3-(cyclopropylmethoxy)phenyl)(4-fluorophenyl)methyl)-3-(2,4-dioxo-3,4-dihydropyrimidin-1(2H)-yl)propane-1-sulfonamide] | 0.58 µM
16 | C[C@@H](NS(=O)(=O)CCCOCn1ccc(=O)[nH]c1=O)c1ccc(F)c(OC2CCOCC2)c1 [Example 48, (R)-3-((2,4-dioxo-3,4-dihydropyrimidin-1(2H)-yl)methoxy)-N-(1-(4-fluoro-3-(tetrahydro-2H-pyran-4-yloxy)phenyl)ethyl)propane-1-sulfonamide] | 0.14 µM

Row | SMILES | IC50
17 | CC(C)(CCCOCn1ccc(=O)[nH]c1=O)NS(=O)(=O)c1cccc(OC(=O)c2ccccc2)c1 [Example 146, 3-(N-(5-((2,4-dioxo-3,4-dihydropyrimidin-1(2H)-yl)methoxy)-2-methylpentan-2-yl)sulfamoyl)phenylbenzoate] | 8.68 µM
18 | C[C@@H](NS(=O)(=O)CCCOCn1ccc(=O)[nH]c1=O)c1cccc(OCC(C)(C)C)c1 [Example 52, (R)-3-((2,4-dioxo-3,4-dihydropyrimidin-1(2H)-yl)methoxy)-N-(1-(3-(neopentyloxy)phenyl)ethyl)propane-1-sulfonamide] | 0.51 µM
19 | O=c1ccn(COCCCS(=O)(=O)NCc2cccc(OC3CCOCC3)c2)c(=O)[nH]1 [Example 46, 3-((2,4-dioxo-3,4-dihydropyrimidin-1(2H)-yl)methoxy)-N-(3-(tetrahydro-2H-pyran-4-yloxy)benzyl)propane-1-sulfonamide] | 2.35 µM
20 | O=c1ccn(C/C=C/CCS(=O)(=O)NCc2cccc(OCC3CC3)c2)c(=O)[nH]1 [Example 113, (E)-N-(3-(cyclopropylmethoxy)benzyl)-5-(2,4-dioxo-3,4-dihydropyrimidin-1(2H)-yl)pent-3-ene-1-sulfonamide] | 0.41 µM
21 | CC[C@@H](NS(=O)(=O)CCCn1ccc(=O)[nH]c1=O)c1ccc(F)c(OCC2CC2)c1 [Example 115, (R)—N-(1-(3-(cyclopropylmethoxy)-4-fluorophenyl)propyl)-3-(2,4-dioxo-3,4-dihydropyrimidin-1(2H)-yl)propane-1-sulfonamide] | 0.25 µM
22 | C[C@@H](NS(=O)(=O)CCCOCn1ccc(=O)[nH]c1=O)c1cccc(F)c1 [Example 87, (R)-3-((2,4-dioxo-3,4-dihydropyrimidin-1(2H)-yl)methoxy)-N-(1-(3-fluorophenyl)ethyl)propane-1-sulfonamide] | 7.13 µM
23 | CC(C)(CCCOCn1ccc(=O)[nH]c1=O)NS(=O)(=O)c1cccc(OCC(F)F)c1 [Example 160, 3-(2,2-difluoroethoxy)-N-(5-((2,4-dioxo-3,4-dihydropyrimidin-1(2H)-yl)methoxy)-2-methylpentan-2-yl)benzenesulfonamide] | 0.14 µM
24 | CC(C)(NS(=O)(=O)c1ccccc1)c1ccc(Cn2ccc(=O)[nH]c2=O)cc1 [Example 176, N-(2-(4-((2,4-dioxo-3,4-dihydropyrimidin-1(2H)-yl)methyl)phenyl)propan-2-yl)benzenesulfonamide] | 2.69 µM
25 | CC(C)[C@@H](NS(=O)(=O)CCCOCn1ccc(=O)[nH]c1=O)c1ccc(F)c(OCC2CC2)c1 [Example 9, (R)—N-(1-(3-(cyclopropylmethoxy)-4-fluorophenyl)-2-methylpropyl)-3-((2,4-dioxo-3,4-dihydropyrimidin-1(2H)-yl)methoxy)propane-1-sulfonamide] | 0.04 µM
26 | C[C@@H](NS(=O)(=O)CCCOCn1ccc(=O)[nH]c1=O)c1cccc(OC(F)(F)C(F)F)c1 [Example 51, (R)-3-((2,4-dioxo-3,4-dihydropyrimidin-1(2H)-yl)methoxy)-N-(1-(3-(1,1,2,2-tetrafluoroethoxy)phenyl)ethyl)propane-1-sulfonamide] | 0.83 µM
27 | C[C@@H](NS(=O)(=O)CCCOCn1ccc(=O)[nH]c1=O)c1cccc(OCCC2CC2)c1 [Example 73, (R)—N-(1-(3-(2-cyclopropylethoxy)phenyl)ethyl)-3-((2,4-dioxo-3,4-dihydropyrimidin-1(2H)-yl)methoxy)propane-1-sulfonamide] | 0.51 µM
28 | CC(C)(NS(=O)(=O)CCCOCn1ccc(=O)[nH]c1=O)c1ccc(F)c(OCC2CC2)c1 [Example 28, N-(2-(3-(cyclopropylmethoxy)-4-fluorophenyl)propan-2-yl)-3-((2,4-dioxo-3,4-dihydropyrimidin-1(2H)-yl)methoxy)propane-1-sulfonamide] | 0.36 µM
29 | CCC(CC)(NS(=O)(=O)CCCOCn1ccc(=O)[nH]c1=O)c1cccc(OCC2CC2)c1 [Example 14, N-(3-(3-(cyclopropylmethoxy)phenyl)pentan-3-yl)-3-((2,4-dioxo-3,4-dihydropyrimidin-1(2H)-yl)methoxy)propane-1-sulfonamide] | 0.21 µM
30 | CC(C)C[C@@H](NS(=O)(=O)CCCOCn1ccc(=O)[nH]c1=O)C(O)(c1ccccc1)c1ccccc1 [Example 80, (R)-3-((2,4-dioxo-3,4-dihydropyrimidin-1(2H)-yl)methoxy)-N-(1-hydroxy-4-methyl-1,1-diphenylpentan-2-yl)propane-1-sulfonamide] | 1.3 µM
31 | CC(NS(=O)(=O)CCCOCn1ccc(=O)[nH]c1=O)c1cccc(OCC2CC2)c1 (centres unmarked) [Example 11, N-(1-(3-(cyclopropylmethoxy)phenyl)ethyl)-3-((2,4-dioxo-3,4-dihydropyrimidin-1(2H)-yl)methoxy)propane-1-sulfonamide] | 0.49 µM
32 | O=c1ccn(COCCCS(=O)(=O)NC(c2cccc(OCC3CC3)c2)C2CC2)c(=O)[nH]1 (centres unmarked) [Example 30, N-(cyclopropyl(3-(cyclopropylmethoxy)phenyl)methyl)-3-((2,4-dioxo-3,4-dihydropyrimidin-1(2H)-yl)methoxy)propane-1-sulfonamide] | 0.36 µM
